Patent US20040087512A1, “In-situ formation of CLA” (priority 1998, published 2004)

Key:
[1] = tested on: C57/B1/6J mice; test: Example 6: milk fat percentage of mice fed oleic acid isomer diets (creamatocrit); type: in vivo; settings: for Milk fat on day 10 versus day 6 of lactation: isomer replaces about 25% of dietary fat, four days
Description: (§1) C57/B1/6J mice fed a control diet (10 wt % fat) were switched to one of four isomer diets at day 6 of lactation after milk collection. Approximately 25% of the dietary fat (5 caloric %) during the treatment period was replaced with one of four specific isomers of oleic acid, either cis-9; cis-11; trans-9 or trams-11, other diet components were identical. The mice consumed these diets ad libitum for four days and were milked again on day 10 of lactation. Milk and fecal fatty acid composition was analyzed as fatty acid methyl esters by GC. Specific isomers were identified by relative retention times. Milk fat percentage was determined by the creamatocrit method and differences between day 6 and day 10 fat percentages were evaluated by a paired t-test.

[2] = tested on: C57/B1/6J mice; test: Example 6: milk and fecal fatty acid composition of mice fed oleic acid isomer diets (GC of FAME); type: in vivo; settings: day 10, fed the isomer diet
Description: as §1

[3] = tested on: cows; test: Milk fat levels in cows ingesting C18 trans 11 fats; settings: in vivo

CCCCCCCC/C=C\CCCCCCCC(=O)O [cis-9]
Milk fat on day 10 versus day 6 of lactation [1]: identical fat values

CCCCCC/C=C\CCCCCCCCCC(=O)O [cis-11]
Milk fat on day 10 versus day 6 of lactation [1]: numerically lower
Test isomer in milk [2]: 10 % of the fat

CCCCCCCC/C=C/CCCCCCCC(=O)O [trans-9]
Milk fat on day 10 versus day 6 of lactation [1]: statistically lower
Test isomer in milk [2]: 5.8 % of the fat

CCCCCC/C=C/CCCCCCCCCC(=O)O [trans-11, trans vaccinic acid]
Milk fat on day 10 versus day 6 of lactation [1]: numerically lower
Effect of ingestion on milk fat in the lactation products of mammals ([1]; mouse, in vivo): does not reduce milk fat
Effect of ingestion on milk fat levels in cows [3]: do not reduce milk fat levels
Test isomer in milk [2]: 3 % of the fat
